Results from US10245255B2, “Compositions and methods for the treatment of obesity and related disorders” (THE REGENTS OF THE UNIVERSITY OF MICHIGAN, priority 2011, dated 2019).
“Also recorded” adds a separate entry of the source.

Test system: RAW264.7 cells
Test: RAW264.7 cells stimulated with LPS or poly I:C: phosphorylation (immunoblot)
Format: cell-based
Conditions: for LPS or poly I:C-stimulated phosphorylation of IRF3: LPS 0.5 μg/ml or poly I:C 50 μg/ml; for phosphorylation of TBK1 on serine 172: LPS or poly I:C stimulated
Description: 3T3-L1 fibroblasts (American Type Culture Collection, Manassas, Va.) were cultured and differentiated using standard methods known in the art. […] 3T3-L1 adipocytes were serum starved with 0.5% fetal bovine serum (FBS) in Dulbecco's modified eagle medium (DMEM) prior to treatment. TNFα treatments (50 ng/mL unless otherwise noted) were performed during the 24 hour prior to harvest, after pretreatment with IKKβ inhibitor compound VIII (EMD Biosciences, Philadelphia, Pa.) for 1 hour where indicated. […] Cells were treated with or without 10 nM of insulin for 15 minutes. RAW264.7 cells were serum starved with 0.5% FBS DMEM media and pre-treated with or without Cay-10576 (Cayman Chemical, Ann Arbor, Mich.). The cells were then treated with LPS (0.5 μg/ml) or poly I:C (50 μg/ml) for 1 hour. Cells were harvested for total RNA and analyzed by real-time PCR Cell lysates were resolved on SDS-PAGE and analyzed by immunoblot using the indicated antibodies.

## COc1cc2ncn(-c3cc(OCc4ccccc4S(C)(=O)=O)c(C#N)s3)c2cc1OC [Cay-10576]
  LPS or poly I:C-stimulated phosphorylation of IRF3: blocked
  phosphorylation of TBK1 on serine 172: stimulated
Listed as cayman
  LPS or poly I:C-stimulated phosphorylation of IRF3: reverses
  phosphorylation of TBK1 on serine 172: inducing
  IKKβ phosphorylation: increased; also recorded: inducing
